These results are taken from PMC8596132 (Advanced Science, 2021).

Each structure is given as a SMILES string. Where two headings read alike, the source gives them in different places. Bridge positions count the residues as written; N and C are the ends. Peptide text beside a SMILES is read from it.

The target of one series is T1, mouse TRPM8 channel (Mus musculus, UniProt Q8R4D5).
T1 construct: expressed in transfected cells; host or cells: HEK293 / HEK293T cells
As to the kind of experiment: whole-cell patch-clamp recording, menthol activation of TRPM8. It is filed as cell-based. As for the experimental part: HEK293T cells were cultured in Dulbecco's modified Eagle's medium with 10% fetal bovine serum, penicillin (100 U mL^−1), and streptomycin ([…]) at 37 °C with 5% CO2. Transient transfection was conducted by using Lipofectamine 2000 (Invitrogen) and following the instruction manual.
(§1) Electrophysiological experiments were performed between 24 and 48 h after transfections. Specifically, single‐channel recordings were conducted about […] after transfection.
Patch‐clamp recordings were performed with a HEKA EPC10 amplifier with PatchMaster software (HEKA) in the whole‐cell, inside‐out, or outside‐out configuration. For whole cell recordings, patch pipettes were prepared from borosilicate glass and fire‐polished to a resistance of ≈3–6 MΩ. Serial resistance was compensated by 60%. Whole‐cell recordings were performed at ±80 mV. For single‐channel recordings, patch pipettes were fire‐polished to a higher resistance of 6–8 MΩ. Current signal was sampled at 10 kHz and filtered at 2.9 kHz. […]
(§2) There were different solutions prepared for different ion channels current recordings. […] TRPM2 currents were recorded with the help of standard bath solution of 147 × 10^−3 M NaCl, 2 × 10^−3 M KCl, 1 × 10^−3 M MgCl2, 10 × 10^−3 M HEPES, 2 × 10^−3 M CaCl2, 13 × 10^−3 M glucose, pH = 7.4 and the pipette solutions of 147 × 10^−3 M NaCl, 1 × 10^−3 M MgCl2, 10 × 10^−3 M HEPES, pH = 7.4. […]
For orientation: Patch clamp records ionic current or voltage across a cell membrane.

The target in another series is T2, TRPM8 channel (Mus musculus, UniProt Q8R4D5).
T2 construct: expressed in transfected cells; host or cells: HEK293 / HEK293T cells
T2 sequence (Q8R4D5 whole entry): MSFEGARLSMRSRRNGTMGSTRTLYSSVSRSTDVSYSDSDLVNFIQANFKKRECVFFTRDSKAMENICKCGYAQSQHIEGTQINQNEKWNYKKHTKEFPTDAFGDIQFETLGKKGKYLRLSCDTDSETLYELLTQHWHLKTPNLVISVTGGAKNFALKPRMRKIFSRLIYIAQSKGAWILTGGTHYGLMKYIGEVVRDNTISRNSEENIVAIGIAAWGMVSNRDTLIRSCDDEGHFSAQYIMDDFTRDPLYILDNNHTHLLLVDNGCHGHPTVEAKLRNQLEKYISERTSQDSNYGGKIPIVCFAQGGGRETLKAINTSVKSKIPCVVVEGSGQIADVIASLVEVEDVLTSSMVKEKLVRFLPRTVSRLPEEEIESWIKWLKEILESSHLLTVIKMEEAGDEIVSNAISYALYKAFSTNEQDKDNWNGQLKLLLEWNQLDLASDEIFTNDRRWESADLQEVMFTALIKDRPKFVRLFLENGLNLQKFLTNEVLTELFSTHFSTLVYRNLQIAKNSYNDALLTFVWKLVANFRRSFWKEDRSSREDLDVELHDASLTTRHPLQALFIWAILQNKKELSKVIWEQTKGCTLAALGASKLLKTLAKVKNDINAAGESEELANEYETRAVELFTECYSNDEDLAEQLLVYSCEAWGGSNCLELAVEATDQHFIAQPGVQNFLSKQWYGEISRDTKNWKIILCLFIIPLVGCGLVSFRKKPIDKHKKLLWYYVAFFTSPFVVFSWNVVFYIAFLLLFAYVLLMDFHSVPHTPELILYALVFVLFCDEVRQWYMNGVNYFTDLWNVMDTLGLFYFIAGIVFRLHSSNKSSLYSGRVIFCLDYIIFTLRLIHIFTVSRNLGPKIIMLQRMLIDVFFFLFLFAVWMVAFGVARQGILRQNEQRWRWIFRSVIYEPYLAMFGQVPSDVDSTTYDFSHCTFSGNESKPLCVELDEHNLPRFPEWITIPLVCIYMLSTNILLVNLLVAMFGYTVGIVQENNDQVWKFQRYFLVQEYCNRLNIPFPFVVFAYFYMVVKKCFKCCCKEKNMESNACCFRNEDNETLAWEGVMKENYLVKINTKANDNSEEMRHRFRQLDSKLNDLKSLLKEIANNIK
As to the kind of experiment: single-channel patch-clamp recording, menthol activation (outside-out). The class given is cell-based. As to conditions: +80 mV. Here is the method:
as §1
(§3) Patch‐clamp recordings were performed with a HEKA EPC10 amplifier with PatchMaster software (HEKA) in the whole‐cell, inside‐out, or outside‐out configuration. For whole cell recordings, patch pipettes were prepared from borosilicate glass and fire‐polished to a resistance of ≈3–6 MΩ. Serial resistance was compensated by 60%. Whole‐cell recordings were performed at ±80 mV. For single‐channel recordings, patch pipettes were fire‐polished to a higher resistance of 6–8 MΩ. Current signal was sampled at 10 kHz and filtered at 2.9 kHz. Membrane potential was clamped at +80 mV. All recordings were performed at room temperature (22 °C) with the maximum variation of 1 °C.
There were different solutions prepared for different ion channels current recordings. For TRPM8, TRPV1, TRPV2, TRPV3, and TRPA1 channels recording, the standard bath and pipette solution contained: 130 × 10^−3 M NaCl, 0.2 × 10^−3 M EDTA, and 3 × 10^−3 M HEPES, pH = 7.2. For TRPM4 channels recording, solutions with 130 × 10^−3 M NaCl and 3 × 10^−3 M HEPES, pH = 7.2 were used as standard bath solution. The pipette solutions required 500 × 10^−6 M CaCl2 mixing with 130 × 10^−3 M NaCl and 3 × 10^−3 M HEPES, pH = 7.2. TRPM2 currents were recorded with the help of standard bath solution of 147 × 10^−3 M NaCl, 2 × 10^−3 M KCl, 1 × 10^−3 M MgCl2, 10 × 10^−3 M HEPES, 2 × 10^−3 M CaCl2, 13 × 10^−3 M glucose, pH = 7.4 and the pipette solutions of 147 × 10^−3 M NaCl, 1 × 10^−3 M MgCl2, 10 × 10^−3 M HEPES, pH = 7.4. For NaV1.5, NaV1.7 channels, the standard bath solution was 140 × 10^−3 M NaCl, 3 × 10^−3 M KCl, 1 × 10^−3 M MgCl2, 1 × 10^−3 M CaCl2, 10 × 10^−3 M HEPES, pH = 7.2 and standard pipette solution was 140 × 10^−3 M CsF, 1 × 10^−3 M EGTA, 10× 10^−3 M NaCl, 10 × 10^−3 M MgCl2, 3 × 10^−3 M KCl, pH = 7.2. To evoke sodium channel currents, a holding potential of −80 mV was used with a testing pulse to +10 mV. […]

The next series has as its target T3, TRPV2 (Homo sapiens, UniProt Q9Y5S1).
T3 construct: expressed in transfected cells; host or cells: HEK293T
T3 sequence (Q9Y5S1 1-764): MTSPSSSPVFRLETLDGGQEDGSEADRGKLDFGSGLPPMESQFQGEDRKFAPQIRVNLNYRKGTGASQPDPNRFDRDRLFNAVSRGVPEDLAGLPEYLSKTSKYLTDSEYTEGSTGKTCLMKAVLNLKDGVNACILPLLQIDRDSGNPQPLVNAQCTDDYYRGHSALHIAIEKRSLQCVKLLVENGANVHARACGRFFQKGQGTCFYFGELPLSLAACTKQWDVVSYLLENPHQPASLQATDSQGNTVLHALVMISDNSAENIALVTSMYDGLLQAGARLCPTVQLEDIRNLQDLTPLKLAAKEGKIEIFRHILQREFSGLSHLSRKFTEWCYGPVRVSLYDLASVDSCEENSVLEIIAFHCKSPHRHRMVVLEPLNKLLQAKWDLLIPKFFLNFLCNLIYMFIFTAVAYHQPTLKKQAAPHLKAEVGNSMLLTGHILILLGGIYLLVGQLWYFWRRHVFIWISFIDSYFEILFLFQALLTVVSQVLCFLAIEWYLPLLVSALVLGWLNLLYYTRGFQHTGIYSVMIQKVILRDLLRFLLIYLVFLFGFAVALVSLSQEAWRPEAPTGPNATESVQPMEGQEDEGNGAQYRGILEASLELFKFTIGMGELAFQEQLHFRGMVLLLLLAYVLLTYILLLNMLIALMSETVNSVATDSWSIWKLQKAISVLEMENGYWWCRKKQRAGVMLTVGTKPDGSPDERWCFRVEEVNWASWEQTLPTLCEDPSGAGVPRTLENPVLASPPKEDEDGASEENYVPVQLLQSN
As to the kind of experiment: whole-cell recording, TRPV2 ligand activation. The class given is cell-based. To be noted: read-out: IC50, inhibition of TRPV2. As for the experimental part: as §3
as §2, with “recordings. For TRPM8, TRPV1, TRPV2, TRPV3, and TRPA1 channels recording, the standard bath and pipette solution contained: 130 × 10^−3 M NaCl, 0.2 × 10^−3 M EDTA, and 3 × 10^−3 M HEPES, pH = 7.2. For TRPM4 channels recording, solutions with 130 × 10^−3 M NaCl and 3 × 10^−3 M HEPES, pH = 7.2 were used as standard bath solution.” for “recordings.”

Series [1] is described as follows: body temperature measurement. The class given is in vivo. To be noted: mice, i.v. 30 µg g^−1, rectal temperature up to 24 h, 5-9 animals. Here is the method: Adult CD1 mice (male, 6–8 weeks) were used for behavioral and primary cultures of DRG neurons studies. Mice were group‐housed under the 12 h light‐dark cycle with access to standard food and water ad libitum. All the animal procedures were approved by the Institutional Animal Care & Use Committee (IACUC) of Zhejiang University.
A digital thermometer (FT3400) was used for body temperature measurement. Adult CD1 male mice were placed into an environmental room maintained at a constant temperature of 22 ± 1 °C. Body temperature was recorded using a rectal probe for mice (FT3400), which was inserted ≈2 cm from the anus. Body temperature was measured before treatment (baseline, BL) and at 5 min, 15 min, 0.5,1,2, 6, and 24 h following DeC‐1.2 (30 mg kg^−1, i.v.) administration.

T1 sequence (Q8R4D5 whole entry): as the sequence (Q8R4D5 whole entry) above

By IC50 is commonly meant the concentration needed to halve the response being measured. `C[C@@H]1NC(=O)[C@H](C)NC(=O)[C@H](CCCNC(=N)N)NC(=O)[C@H](CO)NC(=O)[C@H](CC(N)=O)NC(=O)[C@H](CCCNC(=N)N)NC(=O)[C@@H](N)CSSC[C@@H](C(=O)O)NC(=O)[C@H](CCCCN)NC(=O)[C@H](CCC(N)=O)NC(=O)[C@H](CO)NC(=O)[C@H](CC(=O)O)NC(=O)[C@H](Cc2c[nH]cn2)NC1=O` [DeC‐1.1] (H-CRNSRAAHDSQKC-OH; disulfide 1-13): 133 ± 73.5 µM corresponded to half-maximal inhibition against mouse TRPM8 channel (SEM) (IC50).

Turning to `C[C@@H]1NC(=O)[C@H](CCCNC(=N)N)NC(=O)[C@H](CC(=O)O)NC(=O)[C@H](CCCNC(=N)N)NC(=O)[C@H](CCCNC(=N)N)NC(=O)[C@@H](N)CSSC[C@@H](C(=O)O)NC(=O)[C@H](CCCNC(=N)N)NC(=O)[C@H](CCC(N)=O)NC(=O)[C@H](CCCNC(=N)N)NC(=O)[C@H](Cc2ccc(O)cc2)NC(=O)[C@H](Cc2c[nH]cn2)NC(=O)[C@H](CCCNC(=N)N)NC1=O` [DeC‐1.2] (H-CRRDRARHYRQRC-OH; disulfide 1-13), the “open probability of TRPM8 with DeC-1.2 plus menthol” value on TRPM8 channel (outside-out, menthol 1 × 10^−3 M + DeC-1.2 100 × 10^−6 M, mean ± SEM, n = 5, SEM) was 18.83 ± 1.92%. Further, the IC50 was 0.0045 ± 0.003 µM on mouse TRPM8 channel (whole-cell patch clamp, TRPM8 expressed in HEK293 cells, −80 mV, 22 °C, n = 3, mean ± SEM, read-out: IC50, inhibition of menthol-induced TRPM8 activation) and around 10 µM on TRPV2. In addition, the “effect on body temperature” value in series [1] is reported as “did not significantly alter body temperature”.

Regarding `CC1CCC(C(C)C)C(O)C1` (stereo not shown) [menthol], the “maximum open probability of TRPM8 activation by menthol” value on TRPM8 channel (saturating menthol 1 × 10^−3 M alone) is “about 70%”. Moreover, the “single-channel conductance of TRPM8 with menthol” value on TRPM8 channel (saturating menthol 1 × 10^−3 M alone, mean ± SEM, n = 3, SEM) is 58.83 ± 1.85 pS.
